This note sets out measurements from publication PMC9920298, “Coronavirus Inhibitors Targeting nsp16” (Molecules, 2023).

One data set concerns the target GST-NSP16 SARS-CoV-2 (Severe acute respiratory syndrome coronavirus 2, UniProt P0DTD1). Description: biochemical. It is filed as binding.
The target in the next data set is GST-NSP16 MERS-CoV (Middle East respiratory syndrome-related coronavirus, UniProt K9N7C7). Description: biochemical. It is filed as binding.
For the next data set, the target named is GST-NSP16 SARS-CoV-1 (Severe acute respiratory syndrome coronavirus, UniProt P0C6X7). Put plainly: biochemical. It is filed as binding.
The nature of data set [1]: Cell viability (resazurin) assay in normal lung fibroblasts. The following applies: human, MRC-5 lung fibroblasts. (The colour change of resazurin is a common sign of viable cells or microbes.)

Where only a bound is given, the exact number is not on record here.

GST-NSP16 MERS-CoV, sequence (K9N7C7 6776-7078 limits assumed): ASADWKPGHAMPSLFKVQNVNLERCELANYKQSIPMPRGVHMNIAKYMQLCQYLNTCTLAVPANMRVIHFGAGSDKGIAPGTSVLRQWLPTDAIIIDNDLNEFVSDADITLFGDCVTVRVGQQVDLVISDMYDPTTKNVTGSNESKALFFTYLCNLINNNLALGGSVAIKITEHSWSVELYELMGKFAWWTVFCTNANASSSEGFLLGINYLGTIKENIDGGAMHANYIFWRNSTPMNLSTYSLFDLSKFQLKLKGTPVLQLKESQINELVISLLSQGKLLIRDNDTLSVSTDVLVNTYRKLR

On to `Cc1ccc2ccccc2c1COc1ccc2c(-c3cc4ccccc4oc3=O)cc(=O)oc2c1` [ZINC2121012, 7′-[(2-methylnaphthalen-1-yl)methoxy]-2H,2′H-3,4′-bichromene-2,2′-dione], for which, on GST-NSP16 SARS-CoV-2, the “Binding to SARS-CoV-2 nsp16 by MST (in words)” value (shortened to “Binding to SARS-CoV-2 nsp16”) is given as “strong binding” and binding was characterised by a dissociation constant (Kd) of 23.1 ± 1.05 µM. Also, on GST-NSP16 MERS-CoV, the “Binding to MERS-CoV nsp16 by MST (in words)” value is given as “bound to neither SARS-CoV-1 nor MERS-CoV”. Moreover, the “Binding to SARS-CoV-1 nsp16 by MST (in words)” value at GST-NSP16 SARS-CoV-1 is given as “bound to neither SARS-CoV-1 nor MERS-CoV”.
Turning to `O=c1cc(-c2cc3ccccc3oc2=O)c2ccc(OCc3cccc4ccccc34)cc2o1` [ZINC2129028, 7′-(naphthalen-1-ylmethoxy)-2H,2′H-3,4′-bichromene-2,2′-dione], the CC50 (in general, the concentration giving 50% cytotoxicity) at 72 h in data set [1] came to 18.5 ± 0.66 µM. For the same molecule, on GST-NSP16 SARS-CoV-2, the “Binding to SARS-CoV-2 nsp16” value is on record as “strong binding”. In addition, the values for the Kd at GST-NSP16 SARS-CoV-2, at GST-NSP16 MERS-CoV and on GST-NSP16 SARS-CoV-1 were 60 ± 2.53 µM, 48.1 ± 4.12 µM and 56.4 ± 1.85 µM, respectively.
Take `COc1cccc2c(-c3cc4ccc(OCc5ccc6ccccc6c5)cc4oc3=O)cc(=O)oc12` [ZINC12880820, 8′-methoxy-7-[(naphthalen-2-yl)methoxy]-2H,2′H-[3,4′-bichromene]-2,2′-dione]: the “Binding to SARS-CoV-2 nsp16” value at GST-NSP16 SARS-CoV-2 is reported as “strong binding”. The results for the Kd on GST-NSP16 SARS-CoV-2, at GST-NSP16 MERS-CoV and on GST-NSP16 SARS-CoV-1 were 29.1 ± 2.86 µM, 36.4 ± 1.12 µM and more than 100 µM, respectively.
